Results published in US20050282840A1, “Methods of modulating neurotrophin-mediated activity” (PainCeptor Pharma Corporation, priority 2004, published 2005).
Like-named read-outs stand apart in the source and are kept apart here.

Legend:
[1] = target: T1, p75^NTR receptors (PC12 cells) (Rattus norvegicus, UniProt P07174); test: Basic screening assay: binding of 125I-BDNF to PC12 cells; settings: read-out: BDNF Activity % Maximal Binding
T1 construct: endogenous in cells; host or cells: PC12 cells
T1 sequence (P07174 30-425): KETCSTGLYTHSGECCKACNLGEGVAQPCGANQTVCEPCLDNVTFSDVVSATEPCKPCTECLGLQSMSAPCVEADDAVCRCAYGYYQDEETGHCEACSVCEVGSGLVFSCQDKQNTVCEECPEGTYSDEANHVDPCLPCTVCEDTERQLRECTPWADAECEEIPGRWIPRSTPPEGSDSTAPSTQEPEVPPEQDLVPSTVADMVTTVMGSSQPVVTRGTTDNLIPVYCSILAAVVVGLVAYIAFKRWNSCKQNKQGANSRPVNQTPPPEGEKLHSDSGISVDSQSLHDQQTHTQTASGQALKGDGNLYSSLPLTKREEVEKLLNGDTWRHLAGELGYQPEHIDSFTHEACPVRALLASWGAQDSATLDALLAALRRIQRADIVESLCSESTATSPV
T1 sequence (P23560 129-247 partner): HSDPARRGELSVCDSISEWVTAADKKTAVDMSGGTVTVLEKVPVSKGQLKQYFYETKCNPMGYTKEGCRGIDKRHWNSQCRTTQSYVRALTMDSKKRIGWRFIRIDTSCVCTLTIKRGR
Description: (§1) The compounds were screened for effects on binding of ^125I-BDNF or ^125I-NGF to PC12 cells (p75^NTR receptors), and those that inhibited binding were further tested to determine the EC50 for this inhibition.
(§2) PC12 cells were cultured and prepared for binding assays as described in Example 1.
(§3) Lypophilized Peprotech human recombinant BDNF (Cedarlane Laboratories, Toronto, Canada, cat. # PE 450-02-10) was reconstituted under sterile conditions to 3.5 μM in sterile HKR/1%BSA, and either used immediately or stored in aliquots of 20 μl at −80° C. Immediately prior to use, a 15 nM (30×) solution of ^125I-BDNF or ^125I-NGF was prepared in HKR buffer, and was used at 0.5 nM final concentration.
(§4) Test Compounds were dissolved to 10 mM in DMSO, and those that were not initially soluble were warmed to 40-50° C. and vortexed. Those compounds that were still not in solution were reported as such. Compounds were then stored in this form at −20° C. until use. Immediately before experiments, 100 mM compounds were diluted to 10 mM in DMSO (1:10), followed by a further dilution to 1 mM (1:10) with distilled water, and a further dilution to 500 μM (1:1) with HKR.
(§5) Assays to determine maximum binding (Bmax), non-specific binding (NSB), and binding in the presence of each test compound (e.g., x, y) were performed at least in duplicate. In a total volume of 300 μL, 4×10^6 PC12 cells were incubated, rotating for 2 h at 4° C. with the following:
(§6) At the conclusion of the binding reaction, 100 μL aliquots of the reaction mixtures were carefully layered over 200 μL of a 10% glycerol solution in a 0.4 mL tube, and subjected to centrifugation in a microcentrifuge for 2 minutes at half maximum speed. The cell pellets containing the bound ^125I-BDNF or ^125I-NGF were then measured using a gamma counter. The mean values of the replicates were then calculated to determine the value for maximum binding (Bmax) and nonspecific binding (NSB), and binding in the presence of test compound at 50 μM (Bx). Specific binding (SB) was measured by subtracting the NSB from the Bmax.

[2] = tested on: p75^NTR receptors (PC12 cells); test: Basic screening assay: binding of 125I-NGF to PC12 cells; settings: test compound 50 μM, 0.5 nM 125I-NGF, PC12 cells, 2 h at 4° C., specific binding as percent of control
Description: as §1, §2
Lyophilized Serotec mouse 2.5S NGF (Cedarlane Laboratories, Toronto, Canada, cat. # PMP 04Z) was reconstituted under sterile conditions to 1 mg/mL (38 μM) in sterile 0.2% acetic acid, and 100 μL or 50 μL aliquots were stored frozen at −80° C.
as §3, §4, §5
as §6, with “Bmax. Specific binding in the presence of the test compound (SBx) was determined by subtracting the NSB from the Bx for each test compound; and each SBx was divided by SB and multiplied by 100 to give the specific binding in the presence of the compound as a percent of control specific binding.” for “Bmax.”

[3] = Table 1, test compound 50 μM, 0.5 nM 125I-BDNF, PC12 cells, 2 h at 4° C., specific binding as percent of control
[4] = Table 4, test compound 50 μM, 0.5 nM 125I-BDNF, PC12 cells, 2 h at 4° C., specific binding as percent of control

Row | Structure (SMILES) | NGF Activity % Maximal Binding ([2]; Table 4) | activity at 50 µM [1, 3] [%] | NGF Activity % Maximal Binding ([2]; Table 1) | activity at 50 µM [1, 4] [%] | further results
1 | Cc1cc(C)cc(N2C(=O)/C(=C/c3ccc(-c4ccc(C(=O)O)cc4)o3)C(=O)NC2=S)c1 [Compound 124, 4-{5-[1-(3,5-Dimethylphenyl)-4,6-dioxo-2-thioxo-tetrahydro-pyrimidin-5-ylidenemethyl]furan-2-yl}benzoic acid] | * (50 < *) | – | – | – | activity at 50 µM [1]: > 50%
2 | Cc1c(-c2ccc(C=C3C(=O)NC(=O)NC3=O)o2)cccc1[N+](=O)[O-] [Compound 109, 5-[5-(2-Methyl-3-nitrophenyl)furan-2-ylmethylene]-pyrimidine-2,4,6-trione] | * (50 < *) | – | – | – | activity at 50 µM [1]: > 50%
3 | Cc1cccc(N2NC(=O)C(=Cc3ccc(-c4ccc(C(=O)O)cc4)o3)C2=O)c1 [Compound 82, 4-[5-(3,5-Dioxo-1-m-tolyl-pyrazolidin-4-ylidenemethyl)furan-2-yl]benzoic acid] | – | – | – | – | activity at 50 µM ([1]; Table 2, test compound 50 μM, 0.5 nM 125I-BDNF, PC12 cells, 2 h at 4° C., specific binding as percent of control): 20 to 30%; NGF Activity % Maximal Binding ([2]; Table 2): X (40 < X < 50)
4 | Cc1ccc([N+](=O)[O-])cc1-c1ccc(/C=C2/SC(=S)NC2=O)o1 [Compound 2, 5-[5-(2-Methyl-5-nitrophenyl)furan-2-ylmethylene]-2-thioxo-thiazolidin-4-one] | – | 0 to 10 | * (50 < *) | – | –
5 | Cc1cc([N+](=O)[O-])ccc1-c1ccc(/C=C2\NC(=O)N(Cc3ccccc3F)C2=O)o1 [Compound 131, 3-(2-Fluorobenzyl)-5-[5-(2-methyl-4-nitrophenyl)furan-2-ylmethylene]-imidazolidine-2,4-dione] | * (50 < *) | – | – | > 50 | –
6 | COc1ccc([N+](=O)[O-])cc1-c1ccc(/C=C2/NC(=O)N(c3ccccc3)C2=O)o1 [Compound 123, 5-[5-(2-Methoxy-5-nitrophenyl)furan-2-ylmethylene]-3-phenyl-imidazolidine-2,4-dione] | * (50 < *) | – | – | > 50 | –
7 | COCCN1C(=O)C(=Cc2ccc(-c3cccc([N+](=O)[O-])c3)o2)SC1=S [Compound 34, 3-(2-Methoxy-ethyl)-5-[5-(3-nitrophenyl)furan-2-ylmethylene]-2-thioxo-thiazolidin-4-one] | – | 10 to 20 | * (50 < *) | – | –
8 | CCOC(=O)CN1C(=O)S/C(=C\c2ccc(-c3ccc([N+](=O)[O-])cc3C)o2)C1=O [Compound 61, {5-[5-(2-Methyl-4-nitrophenyl)furan-2-ylmethylene]-2,4-dioxo-thiazolidin-3-yl}-acetic acid ethyl ester] | – | 40 to 50 | * (50 < *) | – | –
9 | COc1cc([N+](=O)[O-])ccc1-c1ccc(/C=C2\NC(=S)NC2=O)o1 [Compound 90, 5-[5-(2-Methoxy-4-nitrophenyl)furan-2-ylmethylene]-2-thioxo-imidazolidin-4-one] | * (50 < *) | – | – | > 50 | –
10 | O=C(O)c1ccc(-c2ccc(/C=C3/NC(=O)N(Cc4ccc(F)cc4)C3=O)o2)cc1 [Compound 126, 4-{5-[1-(4-Fluorobenzyl)-2,5-dioxo-imidazolidin-4-ylidenemethyl]furan-2-yl}benzoic acid] | * (50 < *) | – | – | > 50 | –
11 | CCCC(C(=O)O)N1C(=O)C(=Cc2ccc(-c3ccc([N+](=O)[O-])cc3)o2)SC1=S (stereo not shown) [Compound 52, 2-{5-[5-(4-Nitrophenyl)furan-2-ylmethylene]-4-oxo-2-thioxo-thiazolidin-3-yl}-pentanoic acid] | – | 30 to 40 | * (50 < *) | – | –
12 | Cc1cccc(N2NC(=O)C(=Cc3ccc(-c4cccc([N+](=O)[O-])c4)o3)C2=O)c1 [Compound 140, 4-[5-(3-Nitrophenyl)furan-2-ylmethylene]-1-m-tolyl-pyrazolidine-3,5-dione] | * (50 < *) | – | – | > 50 | –
13 | CN1C(=O)NC(=O)C(=Cc2ccc(-c3ccc(C(=O)O)cc3)o2)C1=O [Compound 17, 4-[5-(1-Methyl-2,4,6-trioxo-tetrahydro-pyrimidin-5-ylidenemethyl)furan-2-yl]benzoic acid] | – | – | * (50 < *) | – | activity at 50 µM [1]: 0 to 10%
14 | COc1ccc(CN2C(=O)/C(=C\c3ccc(-c4ccc(S(N)(=O)=O)cc4)o3)SC2=S)cc1 [Compound 37, 4-{5-[3-(4-Methoxybenzyl)-4-oxo-2-thioxo-thiazolidin-5-ylidenemethyl]furan-2-yl}benzenesulfonamide] | – | 20 to 30 | * (50 < *) | – | –
15 | CCOC(=O)CN1C(=O)S/C(=C\c2ccc(-c3ccc(Cl)c([N+](=O)[O-])c3)o2)C1=O [Compound 113, {5-[5-(4-Chloro-3-nitrophenyl)furan-2-ylmethylene]-2,4-dioxo-thiazolidin-3-yl}-acetic acid ethyl ester] | * (50 < *) | – | – | > 50 | –
16 | Cc1c(C(=O)O)cccc1-c1ccc(/C=C2/NC(=O)N(c3cccc(Cl)c3)C2=O)o1 [Compound 130, 3-{5-[1-(3-Chlorophenyl)-2,5-dioxo-imidazolidin-4-ylidenemethyl]furan-2-yl}-2-methylbenzoic acid] | * (50 < *) | – | – | > 50 | –
17 | COc1cc([N+](=O)[O-])ccc1-c1ccc(C=C2C(=O)ON=C2c2ccccc2)o1 [Compound 56, 4-[5-(2-Methoxy-4-nitrophenyl)furan-2-ylmethylene]-3-phenyl-4H-isoxazol-5-one] | – | 40 to 50 | * (50 < *) | – | –
18 | O=C1NC(=O)C(=Cc2ccc(-c3ccc([N+](=O)[O-])cc3)o2)C(=O)N1 [Compound 26, 5-[5-(4-Nitrophenyl)furan-2-ylmethylene]-pyrimidine-2,4,6-trione] | – | – | * (50 < *) | – | activity at 50 µM [1]: 0 to 10%
19 | Cc1cc([N+](=O)[O-])ccc1-c1ccc(C=C2SC(=S)N(CC(=O)O)C2=O)o1 [Compound 40, {5-[5-(2-Methyl-4-nitrophenyl)furan-2-ylmethylene]-4-oxo-2-thioxo-thiazolidin-3-yl}-acetic acid] | – | 20 to 30 | * (50 < *) | – | –
20 | O=C1NC(=S)NC(=O)C1=Cc1ccc(-c2ccc([N+](=O)[O-])cc2Br)o1 [Compound 1, 5-[5-(2-Bromo-4-nitrophenyl)furan-2-ylmethylene]-2-thioxo-dihydro-pyrimidine-4,6-dione] | – | – | * (50 < *) | – | activity at 50 µM [1]: 0 to 10%
